# Reference: doi:10.1101/2024.02.28.582502, “Magnesium Transporter MgtA revealed as a Dimeric P-type ATPase” (bioRxiv, 2024)
# T1: MgtA (Escherichia coli, UniProt P0ABB8)
# T1 construct: full length, 898 aa, 100 kDa; pETDuet-1-MgtAS (co-expressed with MgtS, no MgtS density seen), E. coli C43(DE3); Ni-NTA and SEC in GDN; predominantly homodimer for cryo-EM, predominantly monomer in DDM for HDX-MS
# T1 sequence (P0ABB8 1-898): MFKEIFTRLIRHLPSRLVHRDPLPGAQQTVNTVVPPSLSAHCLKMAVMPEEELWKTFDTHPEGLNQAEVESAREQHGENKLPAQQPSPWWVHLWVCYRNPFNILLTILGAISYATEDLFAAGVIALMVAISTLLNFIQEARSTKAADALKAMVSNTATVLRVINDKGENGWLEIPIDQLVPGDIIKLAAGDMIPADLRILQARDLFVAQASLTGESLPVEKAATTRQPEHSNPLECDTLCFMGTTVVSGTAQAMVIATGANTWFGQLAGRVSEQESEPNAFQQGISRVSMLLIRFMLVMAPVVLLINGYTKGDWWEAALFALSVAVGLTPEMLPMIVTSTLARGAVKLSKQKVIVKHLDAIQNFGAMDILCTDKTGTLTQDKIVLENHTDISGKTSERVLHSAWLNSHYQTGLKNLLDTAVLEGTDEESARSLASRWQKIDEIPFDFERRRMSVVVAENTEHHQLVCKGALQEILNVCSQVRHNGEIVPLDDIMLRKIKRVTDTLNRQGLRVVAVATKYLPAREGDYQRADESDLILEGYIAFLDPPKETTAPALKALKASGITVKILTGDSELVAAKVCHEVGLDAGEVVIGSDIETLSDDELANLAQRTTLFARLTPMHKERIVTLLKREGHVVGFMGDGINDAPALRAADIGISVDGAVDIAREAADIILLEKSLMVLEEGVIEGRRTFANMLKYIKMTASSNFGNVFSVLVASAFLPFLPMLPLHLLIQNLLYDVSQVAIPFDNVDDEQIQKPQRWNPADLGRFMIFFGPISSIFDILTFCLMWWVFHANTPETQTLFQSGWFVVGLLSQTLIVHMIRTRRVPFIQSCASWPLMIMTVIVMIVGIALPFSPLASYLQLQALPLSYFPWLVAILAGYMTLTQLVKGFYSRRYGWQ
# B1: Escherichia coli magnesium transporter MgtA (from pETDuet-1-MgtAS, co-overexpressed with MgtS) (natural protein)
# chain: T1 sequence (P0ABB8 1-898)
# notes: MgtA, E. coli, P-type ATPase Mg2+ transporter, 100 kDa, 898 amino acids; residues from the N-terminal tail (1-36) on are modelled in the dimer structure; That the His tag stands on MgtA is inferred from its elution from Ni-NTA; also called EcMgtA; MgtAS (the purified sample); source: E. coli C43 (DE3), pETDuet-1-MgtAS, co-overexpressed with MgtS; membranes solubilised with 1% GDN (or DDM, LMNG); …
# Legend:
# [1] = molecular target: T1, MgtA; assay: cryo-EM map density ([…] Å), ligand not modelled; conditions: 5 mM ADP, 5 mM MgCl2, pH 7.5, GDN, dimer, nucleotide binding site
# [2] = molecular target: T1, MgtA; assay: cryo-EM structure ([…] Å); HDX-MS; conditions: cryo-EM: 5 mM ATP, 5 mM MgCl2, pH 7.5, GDN, dimer, nucleotide binding site; HDX-MS: 5 mM ATP, 5 mM MgSO4, DDM, mainly monomer
# [3] = molecular target: T1, MgtA; assay: cryo-EM structure ([…] Å); HDX-MS; conditions: cryo-EM: 5 mM ATPγS, 5 mM MgCl2, pH 7.5, GDN, dimer, nucleotide binding site; HDX-MS: 5 mM ATPγS, 5 mM MgSO4, DDM, mainly monomer
# [4] = molecular target: the molecule itself; assay: cryo-EM structure; single-particle cryo-EM of GDN-purified MgtA, 5 mM MgCl2, 0.007% GDN; without nucleotide or with 5 mM ATP, ATPγS or ADP
molecule,measurement,setting,value
Nc1ncnc2c1ncn2[C@@H]1O[C@H](COP(=O)(O)OP(=O)(O)O)[C@@H](O)[C@H]1O [ADP],"cryo-EM map density (3.75 Å), ligand not modelled",[1],some ADP can enter the nucleotide binding pocket but cannot be bound as tightly
Nc1ncnc2c1ncn2[C@@H]1O[C@H](COP(=O)(O)OP(=O)(O)OP(=O)(O)O)[C@@H](O)[C@H]1O [ATP],cryo-EM structure (3.72 Å); HDX-MS,[2],"Cryo-EM structures of the MgtA dimer bound to the ligands ATP, ATPgS, and ADP"
Nc1ncnc2c1ncn2[C@@H]1O[C@H](COP(=O)(O)OP(=O)(O)OP(O)(O)=S)[C@@H](O)[C@H]1O [ATPγS],cryo-EM structure (3.87 Å); HDX-MS,[3],"MgtA with ATPγS, though resolved at slightly lower resolution, was structurally similar to MgtA with ATP"
B1,stoichiometry N,[4],2
